Assay results from patent publication US7638554B2, “Flavanoids as chemotherapeutic, chemopreventive, and antiangiogenic agents” (SRI International, priority 2002, dated 2009).
Where two headings read alike, the source gives them in different places.

Experiments:
[1] = test system: prostate cancer cell line DU145; assay: Growth inhibition, sulforhodamine-based protein determination, DU145; assay type: cell-based; details: Homo sapiens, DU-145, 144 h; continuous exposure six days
Description: (§1) The novel compound SR 13179 was assayed for its ability to inhibit growth in several cancer cell lines. The cell lines studied included breast cancer cell line MCF-7 (ER+); prostate cancer cell lines LNCaP, PC3, and DU145; lung cancer cell line A427; ovarian cancer cell lines IGROV1, OVCAR-3, OVCAR-4, OVCAR-5, OVCAR-8, and SK-OV-3; and colon cancer cell lines COLO 205, HCC-2998, HCT-116, HCT-15, HT29, KM12, AND SW-620.
(§2) The growth assays for the breast cancer cell lines were conducted according to the method of Example 16. For the other cell lines, each assay was conducted with continuous exposure to the test compound at four log concentrations for six days, using a sulforhodamine-based protein determination to measure growth inhibition.

MDA-MB-231 cells = assay: Concurrent cytotoxicity assay (MTT), MDA-MB-231; assay type: cell-based, human; details: 5 μM, 22 h
Description: The in vitro invasion through Matrigel was studied for two human breast cancer lines: MCF-10CA1a, a highly metastatic ER^+ line and MDA-MB-231, an ER^− line. […] At this concentration, SR13179 inhibited invasion of MDA-MB-231 by about 30% (and by 70% at 5 μM). To rule out a cytotoxic effect in the inhibition of invasion, a concurrent cytotoxicity assay was carried out and the number of viable cells was determined by MTT assay. There was less than 5% decrease in MDA-MB-231 cell viability at 5 μM concentration of SR13179 at 22 h. In the same experiment, a motility experiment was conducted, showing that cell migration was inhibited by about 20%.

[2] = test system: MCF-7 (ER+) breast cancer cell line; assay: Growth inhibition assay, MTT, MCF-7 breast cancer cells; assay type: cell-based, human; details: Homo sapiens
Description: Compounds of the invention were tested for their ability to inhibit growth in two breast cancer cell lines, MCF-7 (ER+) and MDA-MB-231 (ER−).
The growth inhibition assays were conducted using routine methods. Briefly, the cells were seeded in 24-well plates at a density of 2000 cells per well in 200 μL of […] growth medium. To each well was added 10 μL of DMSO containing the dissolved test compound; final DMSO concentration in each well was not more than 0.5%. Each test compound was assayed at concentrations of 0.4, 2, 10, and 50 μM. The plates were incubated for eight days, with the media and test solutions replaced every third day. On Day 8, the viable cells were measured by the MTT assay, as described in Mosmann et al. (1983), “Rapid Colorimetric Assay for Cellular Growth and Survival: Application to Proliferation and Cytotoxicity,” J. Immunol. Method. 65:55-63. The optical density at 575 nm of each test well was measured and compared to that for control wells, and the data used to calculate the percentage of growth inhibition at different concentrations. The IC50 value (the concentration of growth inhibitor that results in 50% growth inhibition of the cells in culture relative to control cells not exposed to any growth inhibitor) was determined by plotting dose-response curves.
The calculated IC50 values are set forth in Table 1, with the results representing the average of at least two experiments conducted for each compound at each of the four concentrations.

MMP-2 = assay: Extracellular level of MMP-2, MCF-10CA1a cells; assay type: cell-based, human; details: 5 μM
Description: The effect of SR13179 on the extracellular levels of TIMP-2 as well as MMP-2 was also investigated. Treatment of MCF-10CA1a cells with SR13179 at 5 μM concentration caused 5- to 8-fold increase in the secreted level of TIMP-2 and a 2-fold decrease in the extracellular level of MMP-2. However, extracellular TIMP-2 protein was always associated with MMP-2 protein, even after the samples were boiled for 10 min and separated under the denaturing conditions of gel electrophoresis.

HUVEC cells = assay: Apoptosis in HUVEC cells, TUNEL assay; assay type: cell-based, human
Description: The antiproliferative mechanism was investigated by assaying for apoptosis using the method of Gavrieli et al. using a Promega (Madison, Wis.) apoptosis detection kit (Gavrieli et al. (1992) J Cell. Biol. 119:493-501). Briefly, HUVEC cells were treated with four log concentrations of SR 13179 (1 nM, 10 nM, 100 nM, and 1 μM) and fixed for terminal deoxyribonucleotide transferase-mediated dUTP nick end labeling (TUNEL) assay at 3 h and 6 h. The apoptotic cells were labeled with fluorescent dUTP at DNA strand breaks, and were counterstained with Hoechst 33258 to visualize nuclear morphology. Even at concentrations as low as 10 nM at 3 h, apoptosis was clearly evident as pyknotic nuclei. […] At six hours, there appeared to be massive apoptosis at higher concentrations of SR 13179, such that the cells were detached and lost during the washing steps. It thus appears that the antiproliferative effect of SR 13179 on vascular endothelial cells is mediated by apoptosis.

[3] = test system: MCF-7 human breast carcinoma cells; assay: Cell cycle analysis in MCF-7 cells; assay type: cell-based; details: 1 μM, 24 h
[4] = test system: chick chorioallantoic membrane (CAM) blood vessels; assay: Chick chorioallantoic membrane (CAM) assay for antiangiogenic activity; assay type: in vivo
Description: The CAM assay, which is widely applied to evaluate in vivo antiangiogenic activity, was utilized with SR 13179.
The methods used were those of Folkman (Auerbach et al. (1974) Dev. Biol. 41:391-394), with some modifications. The test compound was dissolved in saline and methylcellulose, and the embryos dosed once daily for 12-14 days. Blood vessel density of each embryo was measured as the quantitative endpoint. The known antiangiogenic compound medroxyprogesterone acetate (MPA) was used as a positive control.

[5] = test system: prostate cancer cell line LNCaP; assay: Growth inhibition, sulforhodamine-based protein determination, LNCaP; assay type: cell-based; details: Homo sapiens
Description: as §1, §2
The procedure of Example 20 was used to evaluate the growth inhibitory effect of various compounds of the invention on LNCaP cells.

[6] = test system: ovarian cancer cell line IGROV1; assay: Growth inhibition, sulforhodamine-based protein determination, IGROV1; assay type: cell-based; details: Homo sapiens, IGROV-1, 144 h; continuous exposure six days
Description: as §1, §2

[7] = test system: lung cancer cell line A427; assay: Growth inhibition, sulforhodamine-based protein determination, A427; assay type: cell-based; details: Homo sapiens, A-427, 144 h; continuous exposure six days
Description: as §1, §2

[8] = 11.1 μg/CAM, once daily for 12-14 days

COc1cc(C2CC(O)c3ccc4ccccc4c3O2)cc(OC)c1OC (stereo not shown) [SR 13179, 2-(3,4,5-trimethoxyphenyl)-3,4-dihydro-2H-benzo[h]chromen-4-ol]
IC50 [1]: 638 nM | decrease in cell viability (MDA-MB-231 cells): less than 5% | IC50 ([2]; MCF7, 192 h, MTT assay, eight days, average of at least two experiments, read-out: GROWTH INHIBITION (IC50) MCF-7 (ER+)): 1410 nM | IC50 ([2]; MCF7, Table 2, method of Example 16, read-out: IC50, growth inhibition, MCF-7 (ER+)): 1140 nM | decrease in the extracellular level of MMP-2 (MMP-2): 2 fold | Percent apoptosis (HUVEC cells; 1 nM, 3 h): 10.3% | Percent apoptosis (HUVEC cells; 1 nM, 6 h): 8.5% | Percent apoptosis (HUVEC cells; 10 nM, 3 h): 10.3% | Percent apoptosis (HUVEC cells; 10 nM, 6 h): cells detached | Percent apoptosis (HUVEC cells; 100 nM, 3 h): 11.9% | Percent apoptosis (HUVEC cells; 100 nM, 6 h): cells detached | Percent apoptosis (HUVEC cells; 1 μM, 3 h): 16.7% | Percent apoptosis (HUVEC cells; 1 μM, 6 h): cells detached | increase in the percentage of detected apoptotic cells (HUVEC cells; three hours after exposure, versus control): two to three fold increase | hypodiploid (sub G1) fraction compared with untreated control [3]: nearly three-fold increase | Blood vessel density score [4, 8]: 4.6 ± 2.2 | Percent inhibition relative to control [4, 8]: 57% | in vivo antiangiogenic activity compared with MPA ([4]; CAM assay): equivalent to that of MPA | IC50 ([5]; 144 h, continuous exposure six days, read-out: IC50, growth inhibition, LNCaP): 210 nM | IC50 ([5]; Table 5, read-out: Growth Inhibition (IC50), LNCaP cells): 210 nM | IC50 [6]: 281 nM | IC50 [7]: 510 nM
